Series [1] has as its system Cannabis sp. hemp varietal clones (Happy Camper). The series is described as follows: Example 1: indoor cultivation experiment, elicitor treatments, secondary metabolite content of flowers. The note with it: for terpene production (in words): applied alone or in conjunction with other elicitor treatments; for Total terpene production, change: either MeJA and/or SA (pooled) vs control or si only. Type of series: in vivo. An excerpt: Applicant performed an indoor cultivation experiment with 30 identical Cannabis sp. hemp varietal clones (Happy Camper, CBDRx LLC, Colorado). Each of the thirty plants was randomly assigned to one of six treatment groups to test the efficacy and effectiveness of each elicitor compound in isolation or in combination. Plants were maintained in an isolated indoor growing environment under eight, 600-watt double-ended electronic high pressure sodium lamps (Gavita International B.V) under a photoperiod of 12 hours of light per 24-hour day and potted in 1-gallon black plastic pots with a 55% coco coir/45% perlite media (Miller Soils LLC, Longmont, Colo., USA), then transplanted into 10-gallon fabric pots (Smart Pot, High Caliper Growing, USA) filled with a mixture of 75% coco coir and 25% cork (DNA-Mills Ltd, London, England), irrigated as needed with tap water and fertilized consistently to maintain good health with a 4-20-39 base nutrient supplemented with 15-0-0 Calcium Nitrate and commercially available magnesium sulfate (Hydro Gardens International, Colorado Springs, Colo.) at a rate of 300-500 ppm (TDS) as needed. A microbial inoculant (Tribus Original, Impello Biosciences, Ft. Collins, Colo.) was applied at a rate of 1 mL/gallon of nutrient solution every watering to improve plant health. Drip emitters and an automated watering system supplied water and nutrients equally to each plant. Temperatures in the growing environment were maintained at 75° F.±15° F. with a relative humidity range of 30-60%. Every 14 days of growth, all plants were supplemented with a fish protein hydrolysate at a rate of 5 ml/gallon of the previously mentioned nutrient solution to improve nutrition (Innate Bloom 4-2-1, Impello Biosciences, Colorado).
Treatment groups included (1) applications of MeJA as a foliar spray at a concentration of 7.5 mM, (2) SA as a foliar spray at a concentration of 0.5 mM, (3) SiA as a root drench at a concentration of 3 mM, (4) MeJA as a foliar spray at a concentration of 7.5 mM and a root drench of SiA at a concentration of 3 mM, and (5) MeJA as a foliar spray at a concentration of 7.5 mM and a root drench of SiA at a concentration of 3 mM and foliar applications of SA at a concentration of 0.5 mM. The control group was not treated with any applications aside from normal fertilization. Foliar applications of MeJA were performed in the morning hours, within 30 minutes of daybreak, with applications covering plant leaves until dripping. Applications of SA for all SA treatment groups were performed in the morning hours, within 30 minutes of daybreak, with applications covering plant leaves until dripping. Applications of SiA were performed by hand additions of SiA mixtures at the desired concentration to the plant roots of treatment plants; control plants were treated with plain water in the same volume at the same time without the addition of SiA.
7.5 mM solutions of MeJA (mixture of isomers) were prepared in 1-liter volumes using 93% purity MeJA stock solution (TCI America, CAS #[…]) added to reverse osmosis water dropwise with a pipettor while stirring. The pH of the final solution was not adjusted. 0.5 mM solutions of SA were prepared from a 0.5M stock solution, which was prepared using Salicylic Acid powder (ThermoFisher Scientific, CAS #69-72-7), dissolved in 200-proof anhydrous EtOH, denatured (VWR Life Sciences) and stored in a sealed glass bottle. Plant-useable solution was prepared by diluting 1000 μL, of the stock SA solution in 999 mL of reverse osmosis water. Foliar applications of MeJA and SA were made with a 1-L volume low-pressure hand-pump sprayer (Mondi Products LTD, Canada). Silicic Acid solutions were prepared as needed using Silicic Acid stock powder (extra pure light DAB, Millipore Sigma, CAS #7699-41-4), dissolved in reverse osmosis water to the desired final concentration.
Plants were maintained under identical conditions in the same growing environment. […]

For series [2], the system named is plants from clone (Charlotte x Tangie). The series is described as follows: Example 4: flower yield / plant weight with varying concentrations of MeJA foliar spray. Type of series: in vivo, Cannabis sativa. An excerpt: Example 4: Assessment of Flower Yield in plants treated with varying concentrations of MeJA. […] In turn, we designed an experiment to evaluate the efficacy and effectiveness of applying MeJA as a foliar spray to plants in different concentrations.
Fourteen (14) identical plants from clone (Charlotte x Tangie, CBDRx) were cultivated in 1-gallon black plastic pots in a media mixture of 55% coco coir, 45% perlite (Miller Soils LLC, Colorado). Plants were rooted in 1-inch A-OK rockwool cubes (Grodan, B.V.) uniformly prior to transplant into the 1-gallon pots. At the time of transplant, plants were also transitioned from a photoperiod of 18 hours of light per day to a photoperiod of 12 hours of light per day to induce flowering. Each plant was maintained with a standard, commercially available 3-part (4-20-39, CaNO3, MgSO4) nutrient solution at a recommended rate of 350 ppm (Hydro Gardens International, CO), hand watered as needed with 1 L per plant. Plants were randomly assigned to one of four groups, including three treatment groups and one control group: 0 mM MeJA (control), 5 mM MeJA (low), 7.5 mM MeJA (med), and 10 mM MeJA (high). Plants were maintained under identical environmental conditions on a 4′×8′ black plastic table (Botanicare, USA) under 1200 w of light (Gavita Inc, Ne). […]

The mark [3] stands for this setting: day 28, MeJA alone or in conjunction with other elicitors vs non-MeJA treatment, p≤0.05.

This note sets out measurements from US20220183290A1, “CHEMICALS WHICH ALTER THE PRODUCTION OF METABOLITES IN CULTIVATED PLANTS” (priority 2017, published 2022).

`CC/C=C\CC1C(=O)CCC1CC(=O)OC` (stereo not shown) [MeJA, Methyl Jasmonate]: the “terpene production (in words)” value in series [1] is reported as “increased terpene production”. In series [1] (setting [3]), the “Total cannabinoids concentration, change” value is given as “+61.96%”; the “total CBD concentration, change” value is reported as “+61.49%”; the “total THC concentration, change” value is “+61.30%”. Further, the “Total terpene production, change” value in series [1] (day 28, p≤0.05) was “+35%”. Moreover, the “Total CBDA, change” value in series [1] (day 42, MeJA treatments vs no MeJA treatments, p≤0.0005) was “+54.99%”. In addition, in series [1] (day 42, MeJA treatments vs no MeJA treatments, significance less than 0.0005), the “Total THC-A, change” value was “+56.82%”. Moreover, the “Total cannabinoids (THC, THCA, CBD, CBDA), change” value in series [1] (day 42, groups with MeJA alone or in combination vs groups without MeJA, p≤0.001) is “+54.67%”. Besides, the “total cannabinoid concentration, change” value in series [1] (day 42, plants that received MeJA treatments (MeJA or MeJA+SiA or MeJA+SiA+SA) vs control group, p≤0.005) is “+41.49%”. The “total cannabinoid contents, change” value in series [1] (day 63, some sort of MeJA treatment (MeJA only, MeJA with SiA, or ALL) vs control group, p≤0.05) is “+33.11%”. Further, in series [1] (day 63, some sort of MeJA treatment (MeJA only, MeJA with SiA, or ALL) vs no MeJA (control, SA only, SiA only), p≤0.000001), the “total cannabinoid contents, change” value was “+58.64%”. The “CBD content, change” value in series [1] (day 63, vs control plants, p≤0.05 (ALL: p≤0.01)) is on record as “+23.27%”. Also, the “cannabinoid production (in words)” value in series [1] (throughout the flowering cycle, applied alone or in conjunction with other treatments) is on record as “consistently increased cannabinoid production”. In series [2] (exogenous foliar applications, 5-10 mM MeJA), the “impact on plant performance” value is given as “did not negatively impact plant performance”. The “differences in weights between the treatment groups” value in series [2] (foliar spray 0, 5, 7.5, 10 mM MeJA every 14 days from day 7 of the reproductive cycle) is on record as “No significant differences”.

As to `O=C(O)c1ccccc1O` [SA, Salicylic acid], the “terpene production (in words)” value in series [1] is reported as “increased terpene production”. For the same molecule, the “THCA production (in words)” value in series [1] (applied independently without supplemental MeJA applications) is recorded as “decreased THCA production”. The “Total terpene production, change” value in series [1] (day 28, p≤0.05) is on record as “+35%”. Besides, the “THCA, change” value in series [1] (day 63, SA treatment plants vs control plants, p≤0.05) was −45.67%.
